Reference: patent US20240368096A1 (Enanta Pharmaceuticals, Inc., priority 2022, published 2024)
pEC50: −log10 of the molar value.

The compounds below were run on HBV (assay: HBV infection in HepG2-NTCP cells (HBeAg AlphaLISA in supernatants)). Settings: Hepatitis B virus, 192 h; HBV infection of HepG2-NTCP cells; HBeAg in supernatants at day 8 post infection; read-out: Cellular EC50.
Assay type: cell-based
Protocol: HepG2-NTCP A3 cells were maintained in DMEM media supplemented with GlutaMAX™ 10% fetal bovine serum, 1% penicillin/streptomycin, and 5 μg/mL puromycin at 37° C. in a humidified atmosphere with 5% CO2 in a collagen-coated tissue culture flask.
HepG2-NTCP cells were seeded in 384 well plate containing 16,000 cells/well two days prior to the infection. On the day of infection, compounds were 3-fold serially diluted in DMSO and pre-incubated with HepG2-NTCP cells for two hours before purified HBV addition. HBV infection was carried out at 2000 GE/cell with 4% PEG, and the final concentration of DMSO is 0.5%. On day one post infection, HBV-containing media was aspirated, cells were washed once with PBS and then maintained in 2.5% DMSO containing media for the remainder of the assay.
Supernatants from infected HepG2-NTCP cells were collected at day 8 post infection, and the amount of viral antigen HBeAg was measured by HBeAg AlphaLISA detection kit (PerkinElmer) following the manufacturer's recommended protocol. Irrespective of readout, compound concentrations that reduce viral product accumulation in supernatants by […] relative to DMSO controls (EC50) are reported. EC50 ranges are as follows: A<0.1 μM; B 0.1-1 μM; C>1 μM.

pEC50	SMILES
> 7.00	O=C(O)c1cc(-c2cc3c(cc2Cl)N(c2ccccc2)CC(C2CCCCC2)CS3(=O)=O)cc(F)c1F (racemic) [Example 606, Rac-5-(7-chloro-3-cyclohexyl-1,1-dioxido-5-phenyl-2,3,4,5-tetrahydrobenzo[b][1,4]thiazepin-8-yl)-2,3-difluorobenzoic acid]
6.00 to 7.00	CN1[C@H](C2CC=CCO2)CN(c2ccccc2)c2cc(Cl)c(-c3ccc(F)c(C(=O)O)c3)cc2S1(=O)=O (single isomer, unassigned) [Example 103]
< 6.00	CC1CN(c2ccccc2)c2cc(F)c(-c3ccc(F)c(C(=O)O)c3)cc2S(=O)(=O)N1C (stereo not drawn) [Example 1, 2-fluoro-5-(7-fluoro-2,3-dimethyl-1,1-dioxido-5-phenyl-2,3,4,5-tetrahydrobenzo[f][1,2,5]thiadiazepin-8-yl)benzoic acid]
< 6.00	CN1[C@@H](Cc2ccc(Cl)cc2)CN(c2ccccc2)c2cc(F)c(-c3ccc(F)c(C(=O)O)c3)cc2S1(=O)=O [Example 2]
< 6.00	O=C(O)c1cccc(-c2cc3c(cc2F)N(c2ccccc2)CC2c4ccccc4CN2S3(=O)=O)c1 (stereo not drawn) [Example 3]
6.00 to 7.00	O=C(O)c1cc(-c2cc3c(cc2F)N(c2ccccc2)CC2c4ccccc4CN2S3(=O)=O)ccc1F (stereo not drawn) [Example 4]
< 6.00	O=C(O)c1cccc(-c2cc3c(cc2F)N(c2ccccc2)CC2CC4(CC4)CN2S3(=O)=O)c1 (stereo not drawn) [Example 5]
< 6.00	O=C(O)c1cncc(-c2cc3c(cc2F)N(c2ccccc2)CC2CC4(CC4)CN2S3(=O)=O)c1 (stereo not drawn) [Example 6]
6.00 to 7.00	O=C(O)c1cc(-c2cc3c(cc2F)N(c2ccccc2)CC2CC4(CC4)CN2S3(=O)=O)ccc1F (stereo not drawn) [Example 7]
< 6.00	Cn1nc(-c2cc3c(cc2F)N(c2ccccc2)CC2CC4(CC4)CN2S3(=O)=O)cc1C(=O)O (stereo not drawn) [Example 8]
6.00 to 7.00	O=C(O)c1cccc(-c2cc3c(cc2F)N(c2ccccc2)C[C@H]2C[C@@H](C(F)(F)F)CN2S3(=O)=O)c1 [Example 9]
< 6.00	O=C(O)c1cc(-c2cc3c(cc2F)N(c2ccccc2)C[C@H]2C[C@@H](C(F)(F)F)CN2S3(=O)=O)ccc1F [Example 10]
< 6.00	O=C(O)c1cccc(-c2cc3c(cc2F)N(c2ccccc2)C[C@@H]2C[C@H](C(F)(F)F)CN2S3(=O)=O)c1 [Example 11]
< 6.00	CC1CN(c2ccccc2)c2cc(C#N)c(-c3cccc(C(=O)O)c3)cc2S(=O)(=O)N1C (stereo not drawn) [Example 12, 3-(7-cyano-2,3-dimethyl-1,1-dioxido-5-phenyl-2,3,4,5-tetrahydrobenzo[f][1,2,5]thiadiazepin-8-yl)benzoic acid]
< 6.00	CN1[C@@H](Cc2ccc(Cl)cc2)CN(c2ccccc2)c2cc(C#N)c(-c3cccc(C(=O)O)c3)cc2S1(=O)=O [Example 13]
6.00 to 7.00	CC(C)CC1CN(c2ccccc2)c2cc(C#N)c(-c3cccc(C(=O)O)c3)cc2S(=O)(=O)N1C (stereo not drawn) [Example 14]
< 6.00	COc1cc2c(cc1-c1cccc(C(=O)O)c1)S(=O)(=O)N(C)C(C)CN2c1ccccc1 (stereo not drawn) [Example 15, 3-(7-methoxy-2,3-dimethyl-1,1-dioxido-5-phenyl-2,3,4,5-tetrahydrobenzo[f][1,2,5]thiadiazepin-8-yl)benzoic acid]
6.00 to 7.00	COc1cc2c(cc1-c1cccc(C(=O)O)c1)S(=O)(=O)N1Cc3ccccc3C1CN2c1ccccc1 (stereo not drawn) [Example 16]
< 6.00	COc1cc2c(cc1-c1cccc(C(=O)O)c1)S(=O)(=O)N(C)[C@@H](Cc1ccc(Cl)cc1)CN2c1ccccc1 [Example 17]

pEC50	SMILES
6.00 to 7.00	CSc1cc2c(cc1-c1cccc(C(=O)O)c1)S(=O)(=O)N1CC3(CC3)CC1CN2c1ccccc1 (stereo not drawn) [Example 18, 3-(8-(methylthio)-5,5-dioxido-10-phenyl-1,10,11,11a-tetrahydro-3H-spiro[benzo[f]pyrrolo[1,2-b][1,2,5]thiadiazepine-2,1′-cyclopropan]-7-yl)benzoic acid]
6.00 to 7.00	CSc1cc2c(cc1-c1cccc(C(=O)O)c1)S(=O)(=O)N1CC(C)(C)CC1CN2c1ccccc1 (stereo not drawn) [Example 19]
6.00 to 7.00	CSc1cc2c(cc1-c1ccc(F)c(C(=O)O)c1)S(=O)(=O)N1CC(C)(C)CC1CN2c1ccccc1 (stereo not drawn) [Example 20]
6.00 to 7.00	CSc1cc2c(cc1-c1cncc(C(=O)O)c1)S(=O)(=O)N1CC(C)(C)CC1CN2c1ccccc1 (stereo not drawn) [Example 21]
< 6.00	CSc1cc2c(cc1-c1cccc(C(=O)O)c1)S(=O)(=O)N1Cc3ccccc3C1CN2c1ccccc1 (stereo not drawn) [Example 22]
< 6.00	CSc1cc2c(cc1-c1cccc(C(=O)O)c1)S(=O)(=O)N1C[C@H](C(F)(F)F)C[C@@H]1CN2c1ccccc1 [Example 23]
< 6.00	CSc1cc2c(cc1-c1cccc(C(=O)O)c1)S(=O)(=O)N1C[C@@H](C(F)(F)F)C[C@H]1CN2c1ccccc1 [Example 24]
> 7.00	CN1[C@H](C2CCCCC2)CN(c2ccccc2)c2cc(Cl)c(-c3ccc(Cl)c(C(=O)O)c3)cc2S1(=O)=O [Example 26]
6.00 to 7.00	CN1[C@H](C2CCC(F)(F)CC2)CN(c2ccccc2)c2cc(Cl)c(-c3ccc(F)c(C(=O)O)c3)cc2S1(=O)=O [Example 27]
6.00 to 7.00	CN1[C@H](C2CCC(F)(F)CC2)CN(c2ccccc2)c2cc(Cl)c(-c3ccc(Cl)c(C(=O)O)c3)cc2S1(=O)=O [Example 29]
6.00 to 7.00	CN1[C@H](C2CC(F)(F)C2)CN(c2ccccc2)c2cc(Cl)c(-c3ccc(F)c(C(=O)O)c3)cc2S1(=O)=O [Example 30]
6.00 to 7.00	CN1[C@H](C2CC(F)(F)C2)CN(c2ccccc2)c2cc(Cl)c(-c3cc(F)c(F)c(C(=O)O)c3)cc2S1(=O)=O [Example 31]
6.00 to 7.00	CN1[C@H](C2CC(F)(F)C2)CN(c2ccccc2)c2cc(Cl)c(-c3ccc(Cl)c(C(=O)O)c3)cc2S1(=O)=O [Example 32]
6.00 to 7.00	CC(C)CC1CN(c2ccccc2)c2cc(Cl)c(-c3cccc(C(=O)O)c3)cc2S(=O)(=O)N1C (stereo not drawn) [Example 33]
> 7.00	CC(C)CC1CN(c2ccccc2)c2cc(Cl)c(-c3ccc(F)c(C(=O)O)c3)cc2S(=O)(=O)N1C (stereo not drawn) [Example 34]
6.00 to 7.00	CC(C)CC1CN(c2ccccc2)c2cc(Cl)c(-c3cncc(C(=O)O)c3)cc2S(=O)(=O)N1C (stereo not drawn) [Example 35]
6.00 to 7.00	CC(C)CC1CN(c2ccccc2)c2cc(Cl)c(-c3cc(F)cc(C(=O)O)c3)cc2S(=O)(=O)N1C (stereo not drawn) [Example 36]
6.00 to 7.00	CC(C)CC1CN(c2ccccc2)c2cc(Cl)c(-c3cc(Cl)cc(C(=O)O)c3)cc2S(=O)(=O)N1C (stereo not drawn) [Example 37]
> 7.00	CC(C)CC1CN(c2ccccc2)c2cc(Cl)c(-c3ccc(Cl)c(C(=O)O)c3)cc2S(=O)(=O)N1C (stereo not drawn) [Example 38]

pEC50	SMILES
6.00 to 7.00	CC(C)CC1CN(c2ccccc2)c2cc(Cl)c(-c3cc(C(=O)O)n(C)n3)cc2S(=O)(=O)N1C (stereo not drawn) [Example 39]
< 6.00	C=CC[C@H]1CN(c2ccccc2)c2cc(Cl)c(-c3cccc(C(=O)O)c3)cc2S(=O)(=O)N1C [Example 40]
< 6.00	CN1[C@@H](CC2CC2)CN(c2ccccc2)c2cc(Cl)c(-c3cccc(C(=O)O)c3)cc2S1(=O)=O [Example 41]
< 6.00	CN1[C@@H](CC2CC2)CN(c2ccccc2)c2cc(Cl)c(-c3ccc(F)c(C(=O)O)c3)cc2S1(=O)=O [Example 42]
< 6.00	CN1[C@@H](CC2CCCCC2)CN(c2ccccc2)c2cc(Cl)c(-c3cccc(C(=O)O)c3)cc2S1(=O)=O [Example 43]
< 6.00	CCC1CN(c2ccccc2)c2cc(Cl)c(-c3ccc(F)c(C(=O)O)c3)cc2S(=O)(=O)N1C (stereo not drawn) [Example 45]
6.00 to 7.00	CCC1CN(c2ccccc2)c2cc(Cl)c(-c3ccc(Cl)c(C(=O)O)c3)cc2S(=O)(=O)N1C (stereo not drawn) [Example 46]
6.00 to 7.00	CCC[C@@H]1CN(c2ccccc2)c2cc(Cl)c(-c3ccc(F)c(C(=O)O)c3)cc2S(=O)(=O)N1C [Example 47]
> 7.00	CCC[C@@H]1CN(c2ccccc2)c2cc(Cl)c(-c3ccc(Cl)c(C(=O)O)c3)cc2S(=O)(=O)N1C [Example 48]
< 6.00	CN1[C@H](Cc2ccc(Cl)cc2)CN(c2ccccc2)c2cc(Cl)c(-c3ccc(F)c(C(=O)O)c3)cc2S1(=O)=O [Example 49]
6.00 to 7.00	CN1[C@H](CC(C)(C)C)CN(c2ccccc2)c2cc(Cl)c(-c3ccc(F)c(C(=O)O)c3)cc2S1(=O)=O [Example 50]
> 7.00	CN1[C@H](CC(C)(C)C)CN(c2ccccc2)c2cc(Cl)c(-c3ccc(Cl)c(C(=O)O)c3)cc2S1(=O)=O [Example 51]
6.00 to 7.00	CN1[C@H](CC2CCCCC2)CN(c2ccccc2)c2cc(Cl)c(-c3ccc(F)c(C(=O)O)c3)cc2S1(=O)=O [Example 52]
< 6.00	CN1[C@H](CCc2ccccc2)CN(c2ccccc2)c2cc(Cl)c(-c3ccc(F)c(C(=O)O)c3)cc2S1(=O)=O [Example 53]
6.00 to 7.00	CN1[C@H](c2ccccc2)CN(c2ccccc2)c2cc(Cl)c(-c3ccc(F)c(C(=O)O)c3)cc2S1(=O)=O [Example 54]
6.00 to 7.00	CN1[C@H](c2cccc(F)c2)CN(c2ccccc2)c2cc(Cl)c(-c3ccc(F)c(C(=O)O)c3)cc2S1(=O)=O [Example 55]
6.00 to 7.00	CN1[C@H](c2ccc(F)cc2)CN(c2ccccc2)c2cc(Cl)c(-c3ccc(F)c(C(=O)O)c3)cc2S1(=O)=O [Example 56]
6.00 to 7.00	O=C(O)c1cccc(-c2cc3c(cc2Cl)N(c2ccccc2)CC2CC4(CC4)CN2S3(=O)=O)c1 (stereo not drawn) [Example 57]
6.00 to 7.00	O=C(O)c1cc(-c2cc3c(cc2Cl)N(c2ccccc2)C[C@@H](C2CCCCC2)NS3(=O)=O)ccc1F [Example 58]
